{"source": "patent US20230263822A1", "about": "“MODULATION OF FACTOR 11 EXPRESSION” (Ionis Pharmaceuticals, Inc., priority 2008, published 2023)", "key": {"blood coagulation [1]": {"tested_on": "blood coagulation", "assay": "PT and aPTT assay in platelet poor plasma (Example 10)", "assay_type": "in vivo", "details": "BALB/c mice", "description": "BALB/c mice were injected with 5 mg/kg, 10 mg/kg, 25 mg/kg, or 50 mg/kg of ISIS 404057 or ISIS 404071 twice a week for 3 weeks. A control group of mice was injected with phosphate buffered saline (PBS) twice a week for 3 weeks. Mice were sacrificed 5 days after receiving the last dose. Whole liver was harvested for RNA analysis and plasma was collected for clotting analysis (PT and aPTT) and protein analysis.\nProthrombin Time (PT) and Activated Partial Thromboplastin Time (aPTT) were measured using platelet poor plasma (PPP) from mice treated with ISIS 404057 and ISIS 404071. PT and aPTT values provided in Table 18 are reported as International Normalized Ratio (INR) values. INR values for PT and aPTT were determined by dividing the PT or aPTT value for each experimental group (i.e. 5 mg/kg, 10 mg/kg, 25 mg/kg, and 50 mg/kg treatment with ISIS 404057 or ISIS 404071) by the PT or aPTT for the PBS treated group. This ratio was then raised to the power of the International Sensitivity Index (ISI) of the tissue factor used."}, "platelet factor-4 (PF-4)": {"tested_on": "platelet factor-4 (PF-4)", "assay": "Thrombus formation by PF-4 real-time PCR, FeCl3 induced venous thrombosis model vs warfarin (Example 11)", "assay_type": "in vivo, BALB/c mice", "details": "for PF-4 in vena cava, percentage as compared to PBS controls (thrombus formation): + FeCl3", "description": "Two control groups of BALB/c mice were treated with PBS, administered subcutaneously twice a week for 3 weeks. Two days after the last dose of PBS, mice in both groups were anesthetized with 150 mg/kg ketamine mixed with 10 mg/kg xylazine administered by intraperitoneal injection. Thrombus formation was induced with FeCl3 in all groups of mice except the first control group.\nIn mice undergoing FeCl3 treatment, thrombus formation was induced by applying a piece of filter paper (2×4 mm) pre-saturated with 10% FeCl3 solution directly on the vena cava. After 3 minutes of exposure, the filter paper was removed. Thirty minutes after the filter paper application, a fixed length of the vein containing the thrombus was dissected out for platelet analysis. Liver was collected for RNA analysis.\nReal-time PCR quantification of platelet factor-4 (PF-4) was used to quantify platelets in the vena cava as a measure of thrombus formation."}, "blood coagulation [2]": {"tested_on": "blood coagulation", "assay": "PT and aPTT, combination with Apixaban (Example 20)", "assay_type": "in vivo, BALB/c mice", "description": "PT and aPTT were measured using PPP from mice treated with ISIS 404071 in combination with Apixaban. In the first cohort, ISIS 404071 was administered subcutaneously to BALB/c mice at a dosage of 25 mg/kg twice a week for 3 weeks. Plasma was collected from these mice 5 days after receiving the last dose of ISIS 404071. In the second cohort, Apixaban was administered subcutaneously to BALB/c mice at a dosage of 6 mg/kg twice daily for three days. Plasma was collected from these mice 20 minutes after receiving the last dose of Apixaban. In the third cohort, ISIS 404071 was administered subcutaneously to BALB/c mice at a dosage of 20 mg/kg twice a week for 3 weeks, and Apixaban was administered subcutaneously at a dosage of 6 mg/kg twice daily on the last three days of ISIS 404071 treatment. Plasma was collected from these mice 20 minutes after receiving the last dose of Apixaban. In a fourth cohort, PBS was administered subcutaneously twice a week for three weeks, as a control. Plasma was collected 5 days after the last dose of PBS.\nPT and aPTT values provided in Table 32 are reported as International Normalized Ratio (INR) values. […] However, Apixaban and Apixaban combined with ISIS 404071 increased PT. Also shown in Table 32, Apixaban, ISIS 404071, and ISIS 404071 combined with Apixaban increase aPTT."}, "[3]": {"assay": "Tail bleeding assay, combination with PLAVIX (Example 27)", "assay_type": "in vivo, BALB/c mice", "details": "ISIS 404071 20 mg/kg, PLAVIX 0", "description": "ISIS 404071 was administered subcutaneously at a dosage of 20 mg/kg twice a week for 3 weeks to 5 groups of eight BALB/c mice. After the last dose of ISIS 404071, mice were treated with 0 mg/kg, 6.25 mg/kg, 12.50 mg/kg, 25.00 mg/kg, or 50.00 mg/kg of PLAVIX. Two doses of PLAVIX were administered to the mice on day one and one dose of PLAVIX was administered on day two, two hours before bleeding.\nTwo hours after receiving their final treatment, mice were placed in a tail bleeding chamber. […] The blood was collected for the course of 40 minutes."}, "[4]": {"details": "5 mg/kg twice a week for 3 weeks"}, "[5]": {"details": "10 mg/kg twice a week for 3 weeks"}, "[6]": {"details": "25 mg/kg twice a week for 3 weeks"}, "[7]": {"details": "50 mg/kg twice a week for 3 weeks"}, "[8]": {"details": "5-50 mg/kg twice a week for 3 weeks"}, "[9]": {"details": "BALB/c mice, ISIS 404071 25 or 20 mg/kg, Apixaban 6 mg/kg twice daily"}, "[10]": {"details": "ISIS 404071 alone 25 mg/kg s.c. twice a week for 3 weeks, Apixaban alone 6 mg/kg s.c. twice daily for three days, combination 20 mg/kg + 6 mg/kg"}}, "data": [{"substance": "ISIS 404071: antisense oligonucleotide targeted to murine Factor 11 mRNA, TGGTAATCCACTTTCAGAGG, target start site 869 (chemistry not given here)", "values": [{"measurement": "PT INR", "setting": "blood coagulation [1]; [4]", "value": 1.06}, {"measurement": "aPTT INR", "setting": "blood coagulation [1]; [4]", "value": 1.09}, {"measurement": "PT INR", "setting": "blood coagulation [1]; [5]", "value": 1.08}, {"measurement": "aPTT INR", "setting": "blood coagulation [1]; [5]", "value": 1.13}, {"measurement": "PT INR", "setting": "blood coagulation [1]; [6]", "value": 1.06}, {"measurement": "aPTT INR", "setting": "blood coagulation [1]; [6]", "value": 1.35}, {"measurement": "PT INR", "setting": "blood coagulation [1]; [7]", "value": 1.02}, {"measurement": "aPTT INR", "setting": "blood coagulation [1]; [7]", "value": 2.08}, {"measurement": "PT", "setting": "blood coagulation [1]; [8]", "value": "not significantly prolonged"}, {"measurement": "aPTT", "setting": "blood coagulation [1]; [8]", "value": "prolonged in a dose-dependent manner"}, {"measurement": "PF-4 in vena cava as measure of thrombus formation", "setting": "platelet factor-4 (PF-4); FeCl3 induced VT model, vs PBS control", "value": "dose-dependent reduction of PF-4 in comparison to the PBS control for dosages of 5 mg/kg and higher"}, {"measurement": "PF-4 in vena cava, percentage as compared to PBS controls (thrombus formation)", "setting": "platelet factor-4 (PF-4); ISIS 404071 1.25 mg/kg subcutaneously twice a week for 3 weeks", "value": 143, "unit": "%"}, {"measurement": "PF-4 in vena cava, percentage as compared to PBS controls (thrombus formation)", "setting": "platelet factor-4 (PF-4); ISIS 404071 5 mg/kg subcutaneously twice a week for 3 weeks", "value": 95, "unit": "%"}, {"measurement": "PF-4 in vena cava, percentage as compared to PBS controls (thrombus formation)", "setting": "platelet factor-4 (PF-4); ISIS 404071 10 mg/kg subcutaneously twice a week for 3 weeks", "value": 21, "unit": "%"}, {"measurement": "PF-4 in vena cava, percentage as compared to PBS controls (thrombus formation)", "setting": "platelet factor-4 (PF-4); ISIS 404071 20 mg/kg subcutaneously twice a week for 3 weeks", "value": 37, "unit": "%"}, {"measurement": "PF-4 in vena cava, percentage as compared to PBS controls (thrombus formation)", "setting": "platelet factor-4 (PF-4); ISIS 404071 40 mg/kg subcutaneously twice a week for 3 weeks", "value": 20, "unit": "%"}, {"measurement": "PT", "setting": "blood coagulation [2]; [9]", "value": "not significantly affected"}, {"measurement": "aPTT", "setting": "blood coagulation [2]; [9]", "value": "increase aPTT"}, {"measurement": "PT INR", "setting": "blood coagulation [2]; [10]", "value": 0.95, "unit": "INR"}, {"measurement": "aPTT INR", "setting": "blood coagulation [2]; [10]", "value": 1.31, "unit": "INR"}, {"measurement": "Blood (tail bleeding, collected for 40 minutes)", "setting": "[3]", "value": 0, "unit": "g"}]}]}
